Test results from publication PMC12990037, “Discovery of Two Structurally Distinct Classes of Inhibitors Targeting the Nuclease MUS81 and Enhancing Efficacy of Chemotherapy in Cancer Cells” (Journal of Medicinal Chemistry, 2026).

Columns and labels:
CAL51 WT cells = assay: Long-term cell survival assay (retreatment twice a week); type: cell-based; details: 1–3 μM, treated twice a week for almost 3 weeks
Description: To evaluate the long-term effects of the inhibitors on the cellular viability, we treated cells twice a week for almost 3 weeks with low doses of MU262 and MU876.
CAL51 WT cells were treated with DMSO, MU262 = 18, MU876 = 32, nontargeting siRNA, or siRNA targeting MUS81. Cells were trypsinized, counted, and replated twice a week and retreated with inhibitors or siRNA with every passage. The cell number was plotted at each time point. Data were plotted in Graphpad Prism (GraphPad Software) and a 2-way ANOVA test was used to assess significance.

[1] = molecular target: T1, MUS81–EME1 binding to 3′ flap DNA substrate (Homo sapiens, UniProt Q96NY9); assay: Electrophoretic mobility shift assay (EMSA); details: MUS81–EME1 160 nM, no MgCl2
T1 construct: The MUS81–EME1 full-length expression plasmid was obtained from Stephen C; West; made in house; host or cells: Escherichia coli
T1 sequence (Q96NY9 1-551): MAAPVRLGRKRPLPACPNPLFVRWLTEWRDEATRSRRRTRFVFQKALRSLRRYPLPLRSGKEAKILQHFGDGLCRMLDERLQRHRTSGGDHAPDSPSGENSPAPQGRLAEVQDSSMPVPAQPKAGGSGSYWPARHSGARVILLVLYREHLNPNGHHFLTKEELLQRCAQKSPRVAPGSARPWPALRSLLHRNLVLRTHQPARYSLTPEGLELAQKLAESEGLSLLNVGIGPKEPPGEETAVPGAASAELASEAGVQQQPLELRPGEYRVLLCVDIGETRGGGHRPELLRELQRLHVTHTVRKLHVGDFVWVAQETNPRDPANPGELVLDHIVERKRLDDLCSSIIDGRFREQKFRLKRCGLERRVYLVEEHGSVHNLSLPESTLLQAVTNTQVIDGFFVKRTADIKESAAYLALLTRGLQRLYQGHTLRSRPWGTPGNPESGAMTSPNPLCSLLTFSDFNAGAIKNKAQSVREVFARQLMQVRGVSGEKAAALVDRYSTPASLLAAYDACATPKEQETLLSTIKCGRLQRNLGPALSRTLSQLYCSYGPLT
T1 sequence (Q96AY2 1-570 partner): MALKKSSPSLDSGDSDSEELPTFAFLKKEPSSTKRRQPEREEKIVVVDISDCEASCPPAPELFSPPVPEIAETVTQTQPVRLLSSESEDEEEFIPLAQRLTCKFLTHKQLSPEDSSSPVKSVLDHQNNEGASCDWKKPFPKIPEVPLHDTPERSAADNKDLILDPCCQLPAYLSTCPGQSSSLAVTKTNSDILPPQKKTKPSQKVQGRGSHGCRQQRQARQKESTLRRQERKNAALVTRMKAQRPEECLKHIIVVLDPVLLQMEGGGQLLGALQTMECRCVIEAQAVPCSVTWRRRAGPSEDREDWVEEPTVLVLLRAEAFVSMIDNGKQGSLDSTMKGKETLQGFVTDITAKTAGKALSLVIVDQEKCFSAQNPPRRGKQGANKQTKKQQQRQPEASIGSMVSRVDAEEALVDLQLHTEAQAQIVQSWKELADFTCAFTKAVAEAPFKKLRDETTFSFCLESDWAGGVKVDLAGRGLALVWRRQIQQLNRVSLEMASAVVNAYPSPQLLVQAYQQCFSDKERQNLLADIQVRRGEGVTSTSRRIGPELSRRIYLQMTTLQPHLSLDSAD
Description: (A,B) Purified MUS81–EME1 (160 nM) was incubated with increasing concentrations of MU262, MU876, or their respective control analogues, followed by the addition of 3 nM fluorescently labeled 3′ flap DNA substrate. MgCl2 was omitted from the reaction buffer to prevent substrate cleavage. The reaction products were resolved on a native PAGE gel. The lower band represents a free DNA substrate, while the upper smear corresponds to the MUS81–DNA complex. n = 3.
Purified MUS81–EME1 (160 nM) was incubated in a modified assay buffer without MgCl2 (50 mM Tris–HCl pH 7.4, 150 mM NaCl, and 0.05% Tween-20) with 15 nM of a 3′flap DNA substrate (listed in Supplementary Table 5) in the absence or presence of selected inhibitors at RT for 10 min, followed by an incubation at 25 °C for 10 min. The reaction was stopped on ice and products were resolved using native PAGE (7.5% acrylamide gel in 0.5% TBE) at 4 °C for 50 min (6.5 V/cm). Gel images were captured using a FLA-9000 (Fujifilm) and Typhoon (Amersham) scanners and quantified with Multi Gauge V3.2 software (Fujifilm).

MUS81–EME1 = molecular target: T2, MUS81–EME1 (Homo sapiens, UniProt Q96NY9); assay: Gel-based in vitro nuclease assay: cleavage of 3′flap DNA by purified MUS81–EME1; type: biochemical
T2 construct: The MUS81–EME1 full-length expression plasmid was obtained from Stephen C; West; made in house; host or cells: Escherichia coli
T2 sequence (Q96NY9 1-551): T1 sequence (Q96NY9 1-551)
T2 sequence (Q96AY2 1-570 partner): T1 sequence (Q96AY2 1-570 partner)
Description: To identify the small-molecule inhibitors of MUS81, we used two complementary screening approaches. The first involved a structure-based virtual screening, where over 140,000 small molecules were docked into the active site of MUS81 using AutoDock Vina software. […] The cleavage by purified MUS81-EME1 was monitored by gel electrophoresis, and the compound activity was quantified by measuring the reduction in cleavage product intensity.
Nuclease assays were performed in reaction buffer containing 50 mM Tris pH 7.5, 10 mM MgCl2, 1 mM DTT, 85 mM KCl, and 20% glycerol. Purified MUS81–EME1 (1 nM) was preincubated in 9 μL reaction with indicated concentrations of inhibitors for 15 min at room temperature, followed by the addition of 3 nM of a 3′flap DNA substrate (listed in Supplementary Table 9) and a further incubation for 15 min at 37 °C. The final concentration of DMSO in the reactions was 2%. The reactions were stopped by the addition of 0.1% SDS and 500 μg/mL of proteinase K, followed by incubation for 5 min at 37 °C. […] The fluorescent DNA was visualized using a FLA-9000 (Fujifilm). Bands corresponding to cleaved substrates were selected for quantification using the MultiGauge 3.2 software. Final data represent integrated density of these bands with background subtraction. Fitting of the data with sigmoid curves was performed in OriginPro (OriginLab).

CCc1nn2c(O)c(-c3nc4ccccc4[nH]3)nnc2c1-c1ccc(F)cc1 [Compound 18, 3-(1H-Benzo[d]imidazole-2-yl)-7-ethyl-8-(4-fluorophenyl)pyrazolo[5,1-c][1,2,4]triazin-4-ol]
long-term viability (CAL51 WT cells): significant reduction in viability | effect on MUS81–EME1 binding to 3′ flap DNA (EMSA) [1]: neither MU262 nor its inactive analogue MU1066 disrupted the MUS81–DNA interaction | IC50 (MUS81–EME1; Table 1, in vitro): < 1000 nM | IC50 (MUS81–EME1; text and figures, MUS81–EME1 1 nM, 3 nM 3′ flap DNA): 870 nM
